Results on three compounds are retold here after patent publication US10220548B2, “Humidity activated formulation for volatile compounds” (AgroFresh, Inc., priority 2013, dated 2019).

Series [1] can be described thus: Quantification of amount of active in coating by GC. To be noted: PVOH/active/SDS coating; for % Incorporated active (compared to theoretical maximum amount): theoretical maximum 25 wt. % of active. It is filed as physicochemical. On the procedure:
The coating is peeled off the PET backer and then placed in a petri-dish in a fume-hood overnight to allow any residual non-encapsulated active to evaporate. The following day, the delaminated coating is precisely weighed into a 20 mL GC vial. 5.0 grams of DI water is added, and the vial immediately sealed. The contents of the vial are gently swirled to dissolve the coating in the water, and at least 10 hours are allowed for the headspace to equilibrate with the aqueous phase. A headspace sample is then removed by syringe for injection into the GC column.

Series [2] in a line: Vapor pressure and saturated headspace concentration of pure reference compound. Type of series: physicochemical. To be noted: for saturated headspace concentration of reference samples: pure compound 0.5 mL in vial, calculated from known vapor pressures at room temperature. How it is done: The strips of coating are then placed inside GC headspace vials (20 mL). In some cases a droplet of water (0.10 mL) is added to the bottom of the vial (avoiding contact with the strip) before the vial is sealed, in order to generate an atmosphere of 100% relative humidity (RH).
(§1) Analysis of Release of trans-2-hexenal or guaiacol from Coating into Headspace: A strip of approximately 13.6 cm^2 is cut from the middle of the coated PET sheet. The coating is peeled off the PET backer and then placed in a petri-dish in a fume-hood overnight to allow any residual non-encapsulated active to evaporate. A GC vial, 20 mL, with a screw-on septum-cap is prepared at 95% humidity by adding a mini plastic ultracentrifuge vial with the cap cut off containing approximately 0.20 g of saturated potassium nitrate (KNO3) solution, with a few grains of solid KNO3 added to maintain saturation. After allowing time (at least 2 hours) for the humidity in the vial to equilibrate, the strip of coating is added to the GC vial, and the vial immediately sealed. After allowing the desired amount of time for release of the active from the coating, a headspace sample is removed by syringe for injection into the GC column. The concentration in the Headspace is determined by comparing the GC Peak Area of the sample to the GC Peak Area of the headspace from a vial containing 0.5 mL of pure trans-2-hexenal, or guaiacol.

The conditions of series [3]: at 25° C.; known value; cited from earlier work.
The nature of series [4]: Analysis of release of trans-2-hexenal or guaiacol from coating into headspace at 95% RH. Type of series: physicochemical. To be noted: PVOH coating strip, room temperature/95% RH. How it is done:
as §1

For the compound `CCCCCCO` [Formulation 1-Hexanol, 1-hexanol], the “% Incorporated active (compared to theoretical maximum amount)” value (from here on “% Incorporated active”) in series [1] is listed as 75.0%. Also, the “saturated concentration in the headspace of reference vial” value in series [2] (pure compound 0.50 mL in vial, calculated from known vapor pressure at 25° C.) is on record as 1224 ppm. For the same compound, the vapor pressure in series [3] is 0.124 kPa.
Take `COc1ccccc1O` [Guaiacol, guaiacol]: the “Absolute amount of active incorporated (wt. %)” value in series [1] is reported as 17.2% wt. %. In series [1], the “% Incorporated active” value stood at 68.7%. The “Concentration of guaiacol in headspace (ppm)” value in series [4] (0.62 hours after strip inserted into GC vial) is given as 76.17 ppm; in series [4] (1.2 hours) it was 81.90 ppm; in series [4] (1.75 hours), 80.20 ppm; in series [4] (3.52 hours) it was 82.55 ppm; in series [4] (23.75 hours), 89.52 ppm. Also, the “saturated headspace concentration of reference samples” value in series [2] is recorded as 145 ppm (V/V).
With `CCC/C=C/C=O` [Trans-2-hexenal, trans-2-hexenal], the “Absolute amount of active incorporated (wt. %)” value in series [1] worked out at 18.0% wt. %. In series [1], the “% Incorporated active” value is listed as 71.9%. Besides, the “Concentration of trans-2-hexenal in headspace (ppm)” value is reported as 350.60 ppm in series [4] (0.17 hours after strip inserted into GC vial); 589.45 ppm in series [4] (0.70 hours); 1266.50 ppm in series [4] (1.25 hours); 2036.63 ppm in series [4] (1.78 hours); 3484.15 ppm in series [4] (2.33 hours); 4541.25 ppm in series [4] (2.87 hours). Further, the “Concentration of trans-2-hexenal in headspace (ppm)” value in series [4] (3.42 hours) is on record as 6173.40 ppm; in series [4] (4.52 hours) it was 7357.28 ppm; in series [4] (17.77 hours), 6742.25 ppm. In addition, the “saturated headspace concentration of reference samples” value in series [2] was 8685 ppm (V/V).
